From BindingDB's records for doi:10.7270/Q2M61HPT (Nmmlsc, 2008)
pEC50: −log10 of the molar value.

These molecules were tested against Glutathione S-transferase class-mu 26 kDa isozyme (Schistosoma japonicum, UniProt P08515) (assay: GST–glutathione interaction disruption – biochemical, multiplex beads, flow cytometry, HPSMTB buffer, profiling panel (AID 1324)).
Sequence of Glutathione S-transferase class-mu 26 kDa isozyme (P08515 2-218 limits assumed): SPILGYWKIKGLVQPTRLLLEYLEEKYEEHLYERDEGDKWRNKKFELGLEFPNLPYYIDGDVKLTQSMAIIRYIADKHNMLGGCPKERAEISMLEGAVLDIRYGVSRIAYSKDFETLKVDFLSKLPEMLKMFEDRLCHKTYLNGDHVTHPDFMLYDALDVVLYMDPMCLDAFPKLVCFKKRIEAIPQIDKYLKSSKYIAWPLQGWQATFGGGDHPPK
For `COc1cccc(CN=Nc2nn3cnnc3c3ccccc23)c1` [N-[1-(3-Methoxy-phenyl)-meth-(E)-ylidene]-N'-[1,2,4]triazolo[3,4-a]phthalazin-6-yl-hydrazine], the pEC50 was 5.14. Work on `O=[N+]([O-])c1ccc(N=NCc2ccc(O)c(O)c2O)c(S(=O)(=O)N2CCOCC2)c1` [MLS000336720] yielded a pEC50 of 4.62. Molecule `COc1cc(CN=Nc2nn3cnnc3c3ccccc23)ccc1O` [(4E)-2-methoxy-4-[[2-([1,2,4]triazolo[3,4-a]phthalazin-6-yl)hydrazinyl]methylidene]cyclohexa-2,5-dien-1-one] has a pEC50 of 5.63. With `CN(C)[C@@H]1C(=O)C(C(=O)NCN2CCCC2)C(=O)[C@@]2(O)C(=O)C3C(=O)c4c(O)cccc4[C@@](C)(O)C3CC12` (stereo partly drawn) [(2Z,4S,6S,12aS)-4-(dimethylamino)-6,10,11,12a-tetrahydroxy-2-[hydroxy-(1-pyrrolidinylmethylamino)methylidene]-6-methyl-4,4a,5,5a-tetrahydrotetracene-1,3,12-trione] the pEC50 was 4.67.
